Test results taken from patent publication US20110218188A1, “SUBSTITUTED (PYRIDYL)-AZINYLAMINE DERIVATIVES AS FUNGICIDES” (priority 2008, published 2011).
Marks after values point to notes of the source that are not given here.

Test: Measurement of logP values by HPLC on reversed phase columns (EEC directive 79/831 Annex V.A8)
Format: physicochemical
Conditions: pH 2.3

logP	SMILES
1.96^[b]	CN(C)C(=O)c1cccc(-c2ccnc(Nc3ccnc(Cl)c3)n2)n1 [Example A34]

Same assay, conditions: pH 2.7

SMILES	logP	chromatographic logP
CN(CC1CC1)C(=O)c1cc(-c2ncnc(Nc3ccc(F)cc3)n2)ccn1 [Example B17]	2.73	–
CSc1cccc(Nc2ncnc(-c3ccnc(C(=O)N4CCCC4)c3)n2)c1 [B211]	2.82	–
O=C(c1cc(-c2ncnc(Nc3cccc(Cl)c3)n2)ccn1)N1CCC(C(F)(F)F)CC1 [B120]	3.55	–
CC1CCC(C)N1C(=O)c1cc(-c2ncnc(Nc3cccc(Cl)c3)n2)ccn1 (stereo not shown) [Example B141]	3.64	–
CCN(C)C(=S)c1cc(-c2ncnc(Nc3ccccc3)n2)ccn1 [Example B318]	2.73	–
CN(CC1CC1)C(=O)c1cc(-c2ncnc(Nc3ccc(Cl)c(C(F)F)c3)n2)ccn1 [Example B390]	3.31	–
COC(=O)c1cc(-c2ncnc(Nc3ccc(Br)c(OC)c3)n2)ccn1 [B421]	2.90	–
O=C(NC1COC1)c1cc(-c2ncnc(Nc3cccc(Cl)c3)n2)ccn1 [B112]	2.6	–
CCCN(CCO)C(=O)c1cc(-c2ccnc(Nc3ccnc(Cl)c3)n2)ccn1 [Example A10]	1.84	–
CCCN(C)C(=O)c1cc(-c2ncnc(Nc3ccc(C)c(Cl)c3)n2)ccn1 [Example B374]	3.42	–
CC(C)CN(C)C(=O)c1cc(-c2ncnc(Nc3cccc(F)c3)n2)ccn1 [Example B6]	2.92	–
CC(=O)Nc1cccc(Nc2ncnc(-c3ccnc(C(=O)N(C)C(C)C)c3)n2)c1 [B309]	1.81	–
CCN(C)C(=O)c1cc(-c2ncnc(Nc3cccc(OC(F)F)c3)n2)ccn1 [B409]	2.57	–
O=C(NC1CCC1)c1cc(-c2ncnc(Nc3ccc(F)c(Cl)c3)n2)ccn1 [B199]	3.94	–
CC(C)CN(C)C(=O)c1cc(-c2ncnc(Nc3ccc(F)cc3)n2)ccn1 [Example B19]	2.92	–
CC(C)(C)NC(=O)c1cc(-c2ncnc(Nc3cccc(Cl)c3)n2)ccn1 [B98]	4.39	–
O=C(c1cc(-c2ccnc(Nc3ccnc(Cl)c3)n2)ccn1)N1CCCCC1 [Example A5]	2.23	–
O=C(NCC(F)(F)F)c1cc(-c2ncnc(Nc3cccc(Cl)c3)n2)ccn1 [B117]	3.67	–
O=C(NC1CCCCC1)c1cc(-c2ncnc(Nc3cccc(Cl)c3)n2)ccn1 [B56]	4.46	–
CCN(C)C(=O)c1cc(-c2ncnc(Nc3cccc(OC(F)(F)C(F)F)c3)n2)ccn1 [Example B260]	2.92	–
CCN(CC)C(=O)c1cc(-c2ccnc(Nc3ccnc(Cl)c3)n2)ccn1 [Example A27]	2.17	–
O=C(NCC1CC1)c1cc(-c2ncnc(Nc3ccc(F)c(Cl)c3)n2)ccn1 [B198]	3.83	–
CCC(=NOC1CCCC1)c1cc(-c2ncnc(Nc3cccc(Cl)c3)n2)ccn1 (mixture of isomers) [B47]	6.39	–
O=C(c1cc(-c2ccnc(Nc3ccnc(Cl)c3)n2)ccn1)N1CCCC(CO)C1 (stereo not shown) [Example A9]	1.69	–
COC1CCN(C(=O)c2cc(-c3ncnc(Nc4cccc(Cl)c4)n3)ccn2)CC1 [Example B169]	2.68	–
N#CC1CCN(C(=O)c2cc(-c3ncnc(Nc4cccc(Cl)c4)n3)ccn2)CC1 [Example B170]	2.59	–
CCC(COC)NC(=O)c1cc(-c2ncnc(Nc3cccc(Cl)c3)n2)ccn1 (stereo not shown) [B89]	3.8	–
COCC(C)NC(=O)c1cc(-c2ncnc(Nc3ccc(F)c(Cl)c3)n2)ccn1 (stereo not shown) [B191]	3.48	–
CN(CC1CC1)C(=O)c1cc(-c2ncnc(Nc3ccc(F)c(C(F)F)c3)n2)ccn1 [B411]	2.98	–
CCCN(C)C(=O)c1cc(-c2ncnc(Nc3ccc(F)c(C(F)F)c3)n2)ccn1 [Example B399]	2.86	–

Further lines, results first:

logP	chromatographic logP	SMILES
4.16	–	CCC(C)NC(=O)c1cc(-c2ncnc(Nc3ccc(F)c(Cl)c3)n2)ccn1 (stereo not shown) [Example B197]
5.14	–	C=CCON=C(CC)c1cc(-c2ncnc(Nc3cccc(Cl)c3)n2)ccn1 (mixture of isomers) [Example B41]
3.87	–	CC(C)CCN(C)C(=O)c1cc(-c2ncnc(Nc3cccc(Cl)c3)n2)ccn1 [Example B146]
2.35	–	CN(CCC#N)C(=O)c1cc(-c2ncnc(Nc3ccc(F)c(F)c3)n2)ccn1 [Example B384]
3.35	–	CCC(CC#N)NC(=O)c1cc(-c2ncnc(Nc3cccc(Cl)c3)n2)ccn1 (stereo not shown) [Example B95]
3.11	–	CCN(C)C(=O)c1cc(-c2ncnc(Nc3cccc(C(C)C)c3)n2)ccn1 [Example B258]
3.05	–	CCCN(C)C(=S)c1cc(-c2ncnc(Nc3cccc(COC)c3)n2)ccn1 [Example B250]
2.25	–	CN(C)C(=O)c1cc(-c2ncnc(Nc3cccc(OC(F)F)c3)n2)ccn1 [Example B300]
2.65	–	CC(C)N(C)C(=O)c1cc(-c2ncnc(Nc3cccc(C(F)F)c3)n2)ccn1 [Example B290]
3.98	–	C#CCON=C(C)c1cc(-c2ncnc(Nc3cccc(Cl)c3)n2)ccn1 (mixture of isomers) [Example B37]
2.2	–	COc1ccc(Nc2ncnc(-c3ccnc(C(=O)N(C)CC4CC4)c3)n2)cn1 [Example C6]
2.58	–	CN(C)C(=O)c1cc(-c2ncnc(Nc3cccc(C(F)(F)F)c3)n2)ccn1 [Example B355]
3.02	–	CCOC(=O)CNN=C(C)c1cc(-c2ncnc(Nc3cccc(Cl)c3)n2)ccn1 [Example B77]
2.48	–	O=C(c1cc(-c2ncnc(Nc3cccc(Cl)c3)n2)ccn1)N1CCCCC1CO (stereo not shown) [Example B165]
–	3.57	CCN(C)C(=S)c1cc(-c2ncnc(Nc3cccc(S(F)(F)(F)(F)F)c3)n2)ccn1 [Example B253, N-ethyl-N-methyl-4-(4-{[3-(pentafluoro-lambda^6-sulfanyl)phenyl]amino}-1,3,5-triazin-2-yl)pyridine-2-carbothioamide]
2.96	–	CSc1cccc(Nc2ncnc(-c3ccnc(C(=O)N(C)CC(F)F)c3)n2)c1 [Example B372]
5.49	–	CCC(=NOCC1CC1)c1cc(-c2ncnc(Nc3cccc(Cl)c3)n2)ccn1 (mixture of isomers) [Example B54]
3.15	–	CCCN(C)C(=S)c1cc(-c2ncnc(Nc3cccc(OC)c3)n2)ccn1 [Example B283]
3	–	CCN(C)C(=O)c1cc(-c2ncnc(Nc3cccc(OC(F)(F)F)c3)n2)ccn1 [Example B268]
4.97	–	CC(=NNc1ccc(Cl)cc1)c1cc(-c2ncnc(Nc3cccc(Cl)c3)n2)ccn1 [Example B82]
3.79	–	CCC(=O)c1cc(-c2ncnc(Nc3cccc(Cl)c3)n2)ccn1 [Example B45]
2.4	–	CN(C)C(=O)c1cc(-c2ncnc(Nc3cccc(Cl)c3)n2)ccn1 [Example B150]
2.8	–	CC(=NO)c1cc(-c2ncnc(Nc3cccc(Cl)c3)n2)ccn1 (mixture of isomers) [Example B74]
3.37	–	CCN(CC)C(=S)c1cc(-c2ncnc(Nc3ccc(F)c(C(F)F)c3)n2)ccn1 [Example B327]
3.23	–	CCN(CC)C(=O)c1cc(-c2ncnc(Nc3ccc(Cl)c(C(F)F)c3)n2)ccn1 [Example B352]
2.88	–	CCN(CC)C(=O)c1cc(-c2ncnc(Nc3cccc(OC(F)F)c3)n2)ccn1 [Example B298]
2.78	–	CC(C)N(C)C(=O)c1cc(-c2ncnc(Nc3ccc(F)c(C(F)F)c3)n2)ccn1 [Example B396]
